Measurements: patent US12274830B2, “Nitric oxide inhalation therapy for infants with bronchiolitis” (BEYOND AIR LTD, priority 2015, dated 2025)
“Also recorded” adds a separate entry of the source.

Assays:
[1] = tested on: infants with acute bronchiolitis; assay: Efficacy (LOS, time to SpO2 >=92%, time to clinical score <=5) of intermittent inhalations of 160 ppm NO in infants with acute bronchiolitis; assay type: in vivo, human
Procedure: The study was a randomized, prospective, single center, double blind study of 2-11 month old hospitalized infants with acute bronchiolitis (FIG. 1).
Subjects were screened within 4 hours of admission and randomized (1:1) to receive intermittent inhalations of 160 ppm NO along with standard treatment (NO group) or intermittent inhalations of 02/air mixture and standard treatment (control group), for a maximum of 25 inhalations.
Secondary Outcome: Efficacy parameters: LOS calculated in hours, starting from first inhalation until: 1) Oxygen saturation (SpO2) ≥92% in room-air; 2) Clinical score ≤5 (15, 16) and; 3) blinded physician decision of “ready for discharge”.
The secondary outcome were efficacy measures, including LOS, time to achieve ≥92% SaO2, and time to achieve a clinical score of ≤5. LOS in hours was defined as the time between first treatment until the time the infant was “ready for discharge”, defined as 1. Room air saturation of ≥92%; 2. Clinical severity symptom score (Table E1) of ≤5; 3. A clinical decision made by a blinded pediatrician.
A severity symptom score, was used to determine the severity of each infant (Table E1). The score was comprised of four components: Respiratory rate, use of accessory muscles, wheezes and crackles on auscultation, and % room-air oxygen saturation (SpO2). Each component is given 0 to 3 points, with a total possible score of 12. Infants with a score of <6 were determined as mild and were not included in the study, while infants with a score of >10 were determined as very severe and were also excluded.
Each patient was given 5 inhalations a day of NO (treatment group) or oxygen (control group), along with the standard supportive treatment, for a maximum of 25 inhalations (based on phase I safety data). Each participant was examined and evaluated using the severity symptom score by a blinded pediatricians every […] (9 am and 3 pm). When the room-air SpO2 reached 92%, and the score was ≤5, and the patient was assessed as “ready for discharge”, the treatment was discontinued.
Post-hoc subgroup analyses of subjects with a LOS ≤24 hours and >24 hours were also conducted for the key post-hoc secondary endpoints, for the following reasons: based on preclinical studies, the anti-microbial treatment effect of NO is expected to take approximately 2.5 hours of exposure (i.e., 24 hours treatment). A third of the subjects were discharged after <24 hours in hospital. A longer LOS is expected to correlate with a higher disease severity, and therefore any treatment effect should be more evident in the subgroup LOS >24 hours.
LOS was calculated in hours from the first inhalation treatment to “ready for discharge” defined as physician decision to discharge.
Time to achieve room-air SpO2 of ≥92% (improvement in oxygenation) leading to discharge was calculated from first treatment to the first time of room-air SpO2 of ≥92% sustained until discharge. Time to clinical score of ≤5 was calculated from the first inhalation to the first time the subject reached a clinical score of ≤5.
The following statistical tests were used in the analysis of the data presented in this study: 1. The Paired T-Test was applied for testing the statistical significance of the changes from baseline for quantitative variables within each study group; 2. The two-sample T-test or Non-parametric Wilcoxon Rank Sum test or median tests were used as appropriate for analyzing differences between the study groups in quantitative parameters; 3. The Chi-square test was applied for testing the statistical significance of the differences in frequency of categorical variables between the study groups; 4. Survival analysis using a Kaplan-Meier survival function curve was applied for testing the statistical significance of the difference between the study groups in the following endpoints: LOS, from first inhalation to ready to discharge, time to achieve 92% saturation leading to discharge, and time to achieve clinical score ≤5. […]

[2] = tested on: P. aeruginosa (ATCC 27853); details: 200 ppm gNO; cited from earlier work
MRSA = details: 200 ppm gNO; cited from earlier work
Serracia sp. = details: 200 ppm gNO; cited from earlier work
S. aureus (Clinical) = details: 200 ppm gNO; cited from earlier work
Klebsiella sp. #1 = details: 200 ppm gNO; cited from earlier work
Klebsiella sp. #3 = details: 200 ppm gNO; cited from earlier work
S. maltophilia = details: 200 ppm gNO; cited from earlier work
Enterobacter sp. = details: 200 ppm gNO; cited from earlier work
E. coli = details: 200 ppm gNO; cited from earlier work
Group B Streptococci = details: 200 ppm gNO; cited from earlier work
Mycobacterium smegmatis = details: 200 ppm gNO; cited from earlier work
[3] = tested on: bacteria at 10E5 CFU/ml isolated from patients; details: 200 ppm gNO, cited from earlier work
healthy individuals = details: 160 ppm NO for 30 minutes, 5 times daily, 5 consecutive days; cited from earlier work
[4] = previous in vitro and animal studies; cited from earlier work
[5] = average of the 13 bacteria above the line

Structure (SMILES): [N]=O [NO, nitric oxide]
- Time to first 92% O2 saturation sustained to discharge ([1]; ITT (N=42), NO group, P=0.517 vs control): 35.50 ± 33.73 h
- Mean time to reach clinical score of ≤5 ([1]; ITT (N=43), NO group, P=0.621 vs control): 32.83 ± 30.61 h
- Median LOS ([1]; ITT including the 16 infants discharged within <24 hours, P=0.65 vs control): 40 h
- Length of stay (LOS), mean±SD ([1]; ITT, 43 subjects, NO group, P=0.86 vs control): 43.3 ± 32.95 h
- Hazard ratio (HR), time to first sustained 92% O2 saturation ([1]; Kaplan Meier, PP, LOS >24 hours, 95% CI=0.139, 0.921, P=0.028): 0.358
- Hazard ratio (HR), time to clinical score ≤5 ([1]; Kaplan-Meier, ITT, LOS >24 hours, 95% CI: 0.161, 0.949, log rank P=0.033): 0.391
- Median LOS, post-hoc subgroup ([1]; post-hoc ITT, LOS >24 hours subgroup, P=0.014 vs control): 41.92 h
- Clinical benefit of NO versus standard treatment (LOS, time to SpO2 ≥92%, time to clinical score ≤5) ([1]; post-hoc, subgroup LOS >24 hours): statistically significant clinical benefits; also recorded: statistically significant in favor of the NO group; also recorded: statistically significant treatment benefit
- +2.5 Log10 [2]: 2.1 hours
- LD100 [2]: 3 h
- Latent Period [2]: 1 h
- +2.5 Log10 (MRSA): 4.2 hours
- LD100 (MRSA): 5 h
- Latent Period (MRSA): 3 h
- +2.5 Log10 (Serracia sp.): 4.9 hours
- LD100 (Serracia sp.): 6 h
- Latent Period (Serracia sp.): 4 h
- +2.5 Log10 (S. aureus (Clinical)): 3.7 hours
- LD100 (S. aureus (Clinical)): 4 h
- Latent Period (S. aureus (Clinical)): 3 h
- +2.5 Log10 (Klebsiella sp. #1): 3.5 hours
- LD100 (Klebsiella sp. #1): 6 h
- Latent Period (Klebsiella sp. #1): 3 h
- +2.5 Log10 (Klebsiella sp. #3): 5.1 hours
- LD100 (Klebsiella sp. #3): 6 h
- Latent Period (Klebsiella sp. #3): 3 h
- +2.5 Log10 (S. maltophilia): 2.8 hours
- LD100 (S. maltophilia): 4 h
- Latent Period (S. maltophilia): 2 h
- +2.5 Log10 (Enterobacter sp.): 5.3 hours
- LD100 (Enterobacter sp.): 6 h
- Latent Period (Enterobacter sp.): 4 h
- +2.5 Log10 (E. coli): 4.2 hours
- LD100 (E. coli): 5 h
- Latent Period (E. coli): 3 h
- +2.5 Log10 (Group B Streptococci): 1.5 hours
- LD100 (Group B Streptococci): 2 h
- Latent Period (Group B Streptococci): 1 h
- +2.5 Log10 (Mycobacterium smegmatis): 9.2 hours
- LD100 (Mycobacterium smegmatis): 10 h
- Latent Period (Mycobacterium smegmatis): 7 h
- Reduction in CFU/ml for each gNO-exposed organism ([3]; 10E5 CFU/ml): 4-6 Log10 units
- +2.5 Log10, Average [3, 5]: 3.82 hours
- LD100, Average [3, 5]: 4.77 h
- Latent Period, Average [3, 5]: 2.77 h
- Safety and tolerability in healthy individuals (healthy individuals): safe and well tolerated
- NO exposure needed before an anti-microbial effect was seen [4]: at least 2.5 hours
